Where two headings read alike, the source gives them in different places.
Columns and labels:
NTS1 (NT1) (h) = NTS1 (NT1) (h) (Homo sapiens (Human), UniProt P30989); experiment: ExpresSProfile: neurotensin receptor 1, agonist radioligand; type: binding; details: Test Concentration 1.0E−05 M
[1] = molecular target: norepinephrine transporter (h) (Homo sapiens (Human), UniProt P23975); experiment: ExpresSProfile: norepinephrine transporter, antagonist radioligand; type: binding; details: Test Concentration 1.0E−05 M
Chain of norepinephrine transporter (h) (P23975 whole entry): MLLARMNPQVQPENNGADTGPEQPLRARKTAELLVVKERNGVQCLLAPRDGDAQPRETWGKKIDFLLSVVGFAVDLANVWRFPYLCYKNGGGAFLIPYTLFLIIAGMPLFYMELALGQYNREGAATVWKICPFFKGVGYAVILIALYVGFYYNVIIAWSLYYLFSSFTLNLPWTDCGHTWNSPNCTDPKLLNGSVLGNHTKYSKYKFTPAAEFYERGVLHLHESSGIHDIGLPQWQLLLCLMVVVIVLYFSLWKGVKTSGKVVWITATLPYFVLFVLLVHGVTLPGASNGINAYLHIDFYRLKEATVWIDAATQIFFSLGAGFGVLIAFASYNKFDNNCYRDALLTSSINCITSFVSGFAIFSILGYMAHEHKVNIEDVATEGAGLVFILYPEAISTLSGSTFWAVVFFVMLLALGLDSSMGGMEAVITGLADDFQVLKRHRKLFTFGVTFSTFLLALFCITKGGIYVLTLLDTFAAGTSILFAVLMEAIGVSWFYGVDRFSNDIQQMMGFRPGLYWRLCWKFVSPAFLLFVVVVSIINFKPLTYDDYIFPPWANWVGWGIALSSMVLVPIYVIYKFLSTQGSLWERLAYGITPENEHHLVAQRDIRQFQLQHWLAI

5-HT7 (h) = 5-HT7 (h) (Homo sapiens (Human), UniProt P34969); experiment: ExpresSProfile: 5-hydroxytryptamine receptor 7, agonist radioligand; type: binding; details: Test Concentration 1.0E−05 M
Chain of 5-HT7 (h) (P34969 whole entry): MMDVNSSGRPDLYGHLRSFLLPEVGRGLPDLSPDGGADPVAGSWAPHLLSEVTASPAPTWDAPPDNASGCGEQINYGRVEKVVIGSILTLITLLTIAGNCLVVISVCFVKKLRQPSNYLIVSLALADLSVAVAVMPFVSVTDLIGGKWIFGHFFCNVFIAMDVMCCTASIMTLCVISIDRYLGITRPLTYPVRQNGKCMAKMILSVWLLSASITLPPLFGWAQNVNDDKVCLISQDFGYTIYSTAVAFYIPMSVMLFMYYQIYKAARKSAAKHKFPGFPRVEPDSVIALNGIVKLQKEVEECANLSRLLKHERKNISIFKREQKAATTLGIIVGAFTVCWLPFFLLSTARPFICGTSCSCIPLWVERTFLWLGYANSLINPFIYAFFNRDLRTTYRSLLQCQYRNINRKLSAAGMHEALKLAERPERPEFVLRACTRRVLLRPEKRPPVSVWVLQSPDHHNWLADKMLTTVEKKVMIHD

AT1 (h) = AT1 (h) (Homo sapiens (Human), UniProt P30556); experiment: ExpresSProfile: angiotensin receptor 1, antagonist radioligand; type: binding; details: Test Concentration 1.0E−05 M
Chain of AT1 (h) (P30556 whole entry): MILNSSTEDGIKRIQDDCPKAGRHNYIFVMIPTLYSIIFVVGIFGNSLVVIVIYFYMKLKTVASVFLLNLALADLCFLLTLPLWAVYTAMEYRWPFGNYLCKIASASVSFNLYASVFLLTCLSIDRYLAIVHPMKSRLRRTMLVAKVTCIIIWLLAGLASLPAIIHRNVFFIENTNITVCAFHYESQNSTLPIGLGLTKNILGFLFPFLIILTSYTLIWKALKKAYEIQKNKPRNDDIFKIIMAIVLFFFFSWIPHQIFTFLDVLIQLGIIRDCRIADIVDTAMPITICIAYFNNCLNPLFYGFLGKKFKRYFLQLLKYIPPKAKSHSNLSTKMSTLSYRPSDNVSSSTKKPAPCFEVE

alpha 2 (non-selective) = experiment: ExpresSProfile: alpha2 adrenergic receptor, antagonist radioligand; type: binding; details: Test Concentration 1.0E−05 M
A3 (h) = A3 (h) (Homo sapiens (Human), UniProt P0DMS8); experiment: ExpresSProfile: adenosine receptor 3, agonist radioligand; type: binding; details: Test Concentration 1.0E−05 M
Chain of A3 (h) (P0DMS8 whole entry): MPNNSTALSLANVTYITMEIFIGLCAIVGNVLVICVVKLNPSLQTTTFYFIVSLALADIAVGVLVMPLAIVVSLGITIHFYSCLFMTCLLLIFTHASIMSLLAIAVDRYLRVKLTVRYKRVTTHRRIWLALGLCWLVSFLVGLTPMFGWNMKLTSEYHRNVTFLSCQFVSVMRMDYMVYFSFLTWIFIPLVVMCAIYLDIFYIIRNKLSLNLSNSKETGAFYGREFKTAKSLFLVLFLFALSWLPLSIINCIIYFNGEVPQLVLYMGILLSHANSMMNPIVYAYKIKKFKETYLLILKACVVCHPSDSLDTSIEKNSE

5-HT1B = 5-HT1B (Rattus norvegicus, UniProt P28564); experiment: ExpresSProfile: 5-hydroxytryptamine receptor 1B, antagonist radioligand; type: binding; details: Test Concentration 1.0E−05 M
CCR1 (h) = CCR1 (h) (Homo sapiens (Human), UniProt P32246); experiment: ExpresSProfile: C-C chemokine receptor type 1, agonist radioligand; type: binding; details: Test Concentration 1.0E−05 M
Chain of CCR1 (h) (P32246 whole entry): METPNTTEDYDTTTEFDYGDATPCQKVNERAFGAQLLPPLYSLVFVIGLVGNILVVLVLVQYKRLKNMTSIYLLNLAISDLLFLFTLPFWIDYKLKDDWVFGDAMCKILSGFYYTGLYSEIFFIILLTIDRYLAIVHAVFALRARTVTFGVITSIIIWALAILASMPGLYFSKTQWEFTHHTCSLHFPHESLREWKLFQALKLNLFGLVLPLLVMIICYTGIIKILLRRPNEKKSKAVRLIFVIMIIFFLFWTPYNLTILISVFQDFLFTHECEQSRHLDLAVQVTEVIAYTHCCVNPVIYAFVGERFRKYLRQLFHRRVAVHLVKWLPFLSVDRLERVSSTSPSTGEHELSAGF

V1a (h) = V1a (h) (Homo sapiens (Human), UniProt P37288); experiment: ExpresSProfile: V1a, agonist radioligand; type: binding; details: Test Concentration 1.0E−05 M
Chain of V1a (h) (P37288 whole entry): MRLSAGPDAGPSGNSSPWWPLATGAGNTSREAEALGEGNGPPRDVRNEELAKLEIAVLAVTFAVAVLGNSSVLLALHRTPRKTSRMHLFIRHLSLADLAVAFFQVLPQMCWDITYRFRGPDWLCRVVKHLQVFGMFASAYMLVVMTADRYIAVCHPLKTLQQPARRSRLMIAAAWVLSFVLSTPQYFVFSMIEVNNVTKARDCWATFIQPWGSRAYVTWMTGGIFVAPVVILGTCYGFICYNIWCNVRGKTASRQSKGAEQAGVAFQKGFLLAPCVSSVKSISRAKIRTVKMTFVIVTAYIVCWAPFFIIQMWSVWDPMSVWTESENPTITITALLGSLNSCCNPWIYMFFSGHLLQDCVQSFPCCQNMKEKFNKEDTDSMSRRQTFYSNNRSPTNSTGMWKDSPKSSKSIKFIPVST

GABA (non-selective) = experiment: ExpresSProfile: GABA, agonist radioligand; type: binding; details: Test Concentration 1.0E−05 M
5-HT3 (h) = 5-HT3 (h) (Homo sapiens (Human), UniProt P46098); experiment: ExpresSProfile: 5-hydroxytryptamine channel 3, antagonist radioligand; type: binding; details: Test Concentration 1.0E−05 M
Chain of 5-HT3 (h) (P46098 24-478): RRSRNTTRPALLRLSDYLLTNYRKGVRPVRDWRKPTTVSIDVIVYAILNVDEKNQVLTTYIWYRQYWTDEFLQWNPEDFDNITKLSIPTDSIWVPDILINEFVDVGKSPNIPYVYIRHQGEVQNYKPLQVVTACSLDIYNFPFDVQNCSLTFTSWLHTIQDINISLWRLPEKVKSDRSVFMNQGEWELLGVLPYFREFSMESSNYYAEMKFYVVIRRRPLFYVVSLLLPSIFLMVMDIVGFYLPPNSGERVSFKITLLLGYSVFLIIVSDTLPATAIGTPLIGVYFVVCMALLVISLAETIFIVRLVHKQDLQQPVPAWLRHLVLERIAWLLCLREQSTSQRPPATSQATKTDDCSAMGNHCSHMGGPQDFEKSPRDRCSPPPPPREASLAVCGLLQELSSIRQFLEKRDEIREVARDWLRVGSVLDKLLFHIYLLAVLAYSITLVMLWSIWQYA

sst (non-selective) = experiment: ExpresSProfile: somatostatin receptor, agonist radioligand; type: binding; details: Test Concentration 1.0E−05 M
M2 (h) = M2 (h) (Homo sapiens (Human), UniProt P08172); experiment: ExpresSProfile: muscarinic receptor 2, antagonist radioligand; type: binding; details: Test Concentration 1.0E−05 M
Chain of M2 (h) (P08172 whole entry): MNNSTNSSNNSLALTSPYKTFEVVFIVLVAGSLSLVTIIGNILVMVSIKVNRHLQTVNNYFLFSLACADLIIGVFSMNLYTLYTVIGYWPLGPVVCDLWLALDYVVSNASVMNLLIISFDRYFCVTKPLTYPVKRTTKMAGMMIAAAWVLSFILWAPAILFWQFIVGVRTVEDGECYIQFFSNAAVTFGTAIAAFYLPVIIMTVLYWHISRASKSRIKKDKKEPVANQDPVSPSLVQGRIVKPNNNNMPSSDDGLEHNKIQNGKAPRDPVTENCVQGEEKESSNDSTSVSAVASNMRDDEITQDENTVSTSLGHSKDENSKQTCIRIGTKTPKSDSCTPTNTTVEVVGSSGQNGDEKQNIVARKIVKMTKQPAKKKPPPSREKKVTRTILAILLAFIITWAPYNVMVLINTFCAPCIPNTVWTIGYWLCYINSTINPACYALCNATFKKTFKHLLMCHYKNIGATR

[2] = Plasma protein binding assay, mouse; type: in vitro ADME; details: plasma proteins, 4 h at 37° C., equilibrium dialysis, read-out: % bound [mouse] (converted)
From the text: A drug's efficiency may be affected by the degree to which it binds to the proteins within blood plasma. A drug in blood exists in two forms: bound and unbound. Depending on a specific drug's affinity for plasma protein, a proportion of the drug may become bound to plasma proteins, with the remainder being unbound. […] It is also the fraction that may be metabolized and/or excreted. Protein binding can influence the drug's biological half-life in the body. The bound portion may act as a reservoir or depot from which the drug is slowly released as the unbound form. In order to determine the binding characteristics of the compounds of the present invention as listed in the following Table to human or mouse plasma protein, respectively, a plasma protein binding assay was carried out. All compounds have a plasma protein binding that is appropriate for diagnostic, therapeutic and theranostic use of these compounds according to the present invention.
The binding of test substances to human and murine plasma proteins was tested by Cerep (Celle l'Evescault, France; Catalog reference 2194 [human] and 2223 [mouse]) according to Banker et al., J. Pharm. Sci., 2003, 92, 967-974. Test compounds were incubated with human or murine plasma proteins for 4 h at 37° C. Subsequently, the fraction of compound bound to plasma proteins was determined by equilibrium dialysis and HPLC-MS/MS detection. […]

NTR1 = NTR1 (Homo sapiens (Human), UniProt P30989); experiment: Radioligand binding assay NTR1 (example part II); details: 0.05 nM 125I-(Tyr3-neurotensin), 60 min at 4° C.; read-out: IC50 [nM] RLB
Chain of NTR1 (P30989 whole entry): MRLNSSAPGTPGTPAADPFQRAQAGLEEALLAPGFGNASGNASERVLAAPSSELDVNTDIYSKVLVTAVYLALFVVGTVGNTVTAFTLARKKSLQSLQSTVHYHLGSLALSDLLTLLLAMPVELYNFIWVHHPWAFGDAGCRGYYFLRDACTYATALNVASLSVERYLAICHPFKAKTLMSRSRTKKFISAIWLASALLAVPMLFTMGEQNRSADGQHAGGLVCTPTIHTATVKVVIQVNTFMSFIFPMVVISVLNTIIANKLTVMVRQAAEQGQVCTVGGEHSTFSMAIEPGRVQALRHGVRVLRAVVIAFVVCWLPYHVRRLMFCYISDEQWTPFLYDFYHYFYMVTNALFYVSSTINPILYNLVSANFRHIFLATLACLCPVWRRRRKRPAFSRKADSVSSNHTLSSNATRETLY
How it was run: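 Membranes from CHO cells recombinantly expressing human NTR1 incubated with 0.05 nM 125I-(Tyr3-neurotensin) and serially diluted test compounds. Bound radioligand quantified by scintillation counting; displacement expressed as IC50.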

Y2 (h) = Y2 (h) (Homo sapiens (Human), UniProt P49146); experiment: ExpresSProfile: neuropeptide Y receptor 2, agonist radioligand; type: binding; details: Test Concentration 1.0E−05 M
Chain of Y2 (h) (P49146 whole entry): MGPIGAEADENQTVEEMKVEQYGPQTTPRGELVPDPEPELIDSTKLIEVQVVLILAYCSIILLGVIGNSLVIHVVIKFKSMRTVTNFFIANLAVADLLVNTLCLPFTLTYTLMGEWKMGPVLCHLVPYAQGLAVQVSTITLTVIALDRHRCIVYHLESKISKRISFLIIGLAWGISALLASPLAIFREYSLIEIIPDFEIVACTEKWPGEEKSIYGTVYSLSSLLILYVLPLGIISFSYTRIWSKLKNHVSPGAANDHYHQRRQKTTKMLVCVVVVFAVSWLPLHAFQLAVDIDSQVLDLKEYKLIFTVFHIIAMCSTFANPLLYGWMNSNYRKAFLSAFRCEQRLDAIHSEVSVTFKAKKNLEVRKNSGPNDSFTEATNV

kappa (KOP) = kappa (KOP) (Rattus norvegicus, UniProt P34975); experiment: ExpresSProfile: kappa opioid receptor, agonist radioligand; type: binding; details: Test Concentration 1.0E−05 M
[3] = read-out: % Inhibition of Control Specific Binding
[4] = read-out: % of Control Specific Binding 1st
[5] = read-out: % of Control Specific Binding 2nd
[6] = read-out: % of Control Specific Binding Mean

Chain of NTS1 (NT1) (h) (P30989 whole entry): as the sequence (P30989 whole entry) above

## COc1cccc(OC)c1-c1cc(C(=O)NC2(C(=O)O)C3CC4CC(C3)CC2C4)nn1-c1ccc(C(=O)N(C)CCCN(C)CCCN(C)C(=O)CN2CCN(CC(=O)O)CCN(CC(=O)O)CCN(CC(=O)O)CC2)cc1C(C)C (centres unmarked) [(IIIa), 2-{[1-{4-[(3-{[3-(DOTA-methyl-amino)-propyl]-methyl-amino}-propyl)-methyl-carbamoyl]-2-isopropyl-phenyl}-5-(2,6-dimethoxy-phenyl)-1H-pyrazole-3-carbonyl]-amino}-adamantane-2-carboxylic acid]
NTS1 (NT1) (h); [3]
  inhibition at 10 µM: 99%
NTS1 (NT1) (h); [4]
  remaining activity at 10 µM: 2.7%
NTS1 (NT1) (h); [5]
  remaining activity at 10 µM: -0.1%
NTS1 (NT1) (h); [6]
  remaining activity at 10 µM: 1.3%
[1]; [3]
  inhibition at 10 µM: -12%
[1]; [4]
  remaining activity at 10 µM: 119%
[1]; [5]
  remaining activity at 10 µM: 105%
[1]; [6]
  remaining activity at 10 µM: 112%
5-HT7 (h); [3]
  inhibition at 10 µM: 2%
5-HT7 (h); [4]
  remaining activity at 10 µM: 96.6%
5-HT7 (h); [5]
  remaining activity at 10 µM: 99.7%
5-HT7 (h); [6]
  remaining activity at 10 µM: 98.2%
AT1 (h); [3]
  inhibition at 10 µM: -18%
AT1 (h); [4]
  remaining activity at 10 µM: 119%
AT1 (h); [5]
  remaining activity at 10 µM: 117%
AT1 (h); [6]
  remaining activity at 10 µM: 118%
Alpha 2 (non-selective)
  % Inhibition of Control Specific Binding: −10%
  % of Control Specific Binding 1st: 114.4%
  % of Control Specific Binding 2nd: 106.1%
  % of Control Specific Binding Mean: 110.3%
A3 (h); [3]
  inhibition at 10 µM: -41%
A3 (h); [4]
  remaining activity at 10 µM: 129%
A3 (h); [5]
  remaining activity at 10 µM: 154%
A3 (h); [6]
  remaining activity at 10 µM: 141%
5-HT1B; [3]
  inhibition at 10 µM: -7%
5-HT1B; [4]
  remaining activity at 10 µM: 107%
5-HT1B; [5]
  remaining activity at 10 µM: 106%
5-HT1B; [6]
  remaining activity at 10 µM: 107%
CCR1 (h); [3]
  inhibition at 10 µM: -6%
CCR1 (h); [4]
  remaining activity at 10 µM: 103%
CCR1 (h); [5]
  remaining activity at 10 µM: 109%
CCR1 (h); [6]
  remaining activity at 10 µM: 106%
V1a (h); [3]
  inhibition at 10 µM: 6%
V1a (h); [4]
  remaining activity at 10 µM: 94.1%
V1a (h); [5]
  remaining activity at 10 µM: 93%
V1a (h); [6]
  remaining activity at 10 µM: 93.5%
GABA (non-selective)
  % Inhibition of Control Specific Binding: −6%
  % of Control Specific Binding 1st: 101.9%
  % of Control Specific Binding 2nd: 109.9%
  % of Control Specific Binding Mean: 105.9%
5-HT3 (h); [3]
  inhibition at 10 µM: -8%
5-HT3 (h); [4]
  remaining activity at 10 µM: 108%
5-HT3 (h); [5]
  remaining activity at 10 µM: 108%
5-HT3 (h); [6]
  remaining activity at 10 µM: 108%
Sst (non-selective)
  % Inhibition of Control Specific Binding: −11%
  % of Control Specific Binding 1st: 111.6%
  % of Control Specific Binding 2nd: 110.0%
  % of Control Specific Binding Mean: 110.8%
M2 (h); [3]
  inhibition at 10 µM: -17%
M2 (h); [4]
  remaining activity at 10 µM: 124%
M2 (h); [5]
  remaining activity at 10 µM: 111%
M2 (h); [6]
  remaining activity at 10 µM: 117%
[2]
  fraction unbound at 4 h: 0.11
NTR1
  IC50: 2.9 nM
Y2 (h); [3]
  inhibition at 10 µM: -23%
Y2 (h); [4]
  remaining activity at 10 µM: 130%
Y2 (h); [5]
  remaining activity at 10 µM: 116%
Y2 (h); [6]
  remaining activity at 10 µM: 123%
Kappa (KOP); [3]
  inhibition at 10 µM: -2%
Kappa (KOP); [4]
  remaining activity at 10 µM: 111%
Kappa (KOP); [5]
  remaining activity at 10 µM: 92.3%
Kappa (KOP); [6]
  remaining activity at 10 µM: 102%
